Here are results for one molecule from ChEMBL document CHEMBL1201861, “Genomics of Drug Sensitity in Cancer screening data, Wellcome Trust Sanger Institute”.

For one assay, the system named is SW872. The assay can be described thus: cells. The format is functional, cell-based, Homo sapiens. Particulars: Homo sapiens, SW872.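 Further: growth inhibition of SW872 cells, read out by a viability assay.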
Description: SANGER: Inhibition of human SW872 cell growth in a cell viability assay.
As a reminder, the IC50 is the concentration at which inhibition is half-maximal. Consider `CN(NC(=O)CC(=O)NN(C)C(=S)c1ccccc1)C(=S)c1ccccc1` [ELESCLOMOL], for which the half-maximal inhibitory concentration (IC50) was > 200 nM.

The next assay concerns A4-Fuk. The assay can be described thus: cells. It counts as functional, cell-based, Homo sapiens. Particulars: Homo sapiens, A4-Fuk.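 Further: growth inhibition of A4-Fuk cells, read out by a cell viability assay.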
Description: SANGER: Inhibition of human A4-Fuk cell growth in a cell viability assay.
Take `CN(NC(=O)CC(=O)NN(C)C(=S)c1ccccc1)C(=S)c1ccccc1` [ELESCLOMOL]: the 50% inhibitory concentration (IC50) amounted to 108 nM.

The test system of the next assay is SCH. The assay is described as follows: cells. It counts as functional, cell-based, Homo sapiens. The following applies: Homo sapiens, SCH.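 Further: growth inhibition of human SCH cells, read out in a cell viability assay.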
Description: SANGER: Inhibition of human SCH cell growth in a cell viability assay.
Turning to `CN(NC(=O)CC(=O)NN(C)C(=S)c1ccccc1)C(=S)c1ccccc1` [ELESCLOMOL], the IC50 was > 200 nM.

The test system of the next assay is SK-NEP-1. The assay can be described thus: cells. It counts as functional, cell-based, Homo sapiens. The following applies: Homo sapiens, SK-NEP-1.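 Further: growth inhibition of human SK-NEP-1 cells, read out by a cell viability assay.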
Description: SANGER: Inhibition of human SK-NEP-1 cell growth in a cell viability assay.
The molecule `CN(NC(=O)CC(=O)NN(C)C(=S)c1ccccc1)C(=S)c1ccccc1` [ELESCLOMOL] registered a concentration for half-maximal inhibition (IC50) of 76.1 nM.

The next assay concerns SK-N-DZ. The assay is described as follows: cells. It counts as functional, cell-based, Homo sapiens. Particulars: Homo sapiens, SK-N-DZ; read-out: IC50.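 Further: growth inhibition of the cancer cell line, read out through a viability assay.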
Description: SANGER: Inhibition of human SK-N-DZ cell growth in a cell viability assay.
For the molecule `CN(NC(=O)CC(=O)NN(C)C(=S)c1ccccc1)C(=S)c1ccccc1` [ELESCLOMOL], the IC50 is 189 nM.

For a further assay, the system named is D283 Med. The assay is described as follows: cells. It counts as functional, cell-based, Homo sapiens. Particulars: Homo sapiens, D283 Med.
Description: SANGER: Inhibition of human D-283MED cell growth in a cell viability assay.
`CN(NC(=O)CC(=O)NN(C)C(=S)c1ccccc1)C(=S)c1ccccc1` [ELESCLOMOL] had a half-maximal inhibitory concentration (IC50) of 40.9 nM.

A further assay has as its system NCI-H1838. The assay can be described thus: cells. It counts as functional, cell-based, Homo sapiens. The following applies: Homo sapiens, NCI-H1838.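 Further: growth inhibition of NCI-H1838 cells, determined with a cell viability readout.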
Description: SANGER: Inhibition of human NCI-H1838 cell growth in a cell viability assay.
Take `CN(NC(=O)CC(=O)NN(C)C(=S)c1ccccc1)C(=S)c1ccccc1` [ELESCLOMOL]: the IC50 was 184 nM.

The subject of another assay is EOL1. The assay can be described thus: cells. It counts as functional, cell-based, Homo sapiens. The following applies: Homo sapiens, EOL1.
Description: SANGER: Inhibition of human EoL-1-cell cell growth in a cell viability assay.
Molecule `CN(NC(=O)CC(=O)NN(C)C(=S)c1ccccc1)C(=S)c1ccccc1` [ELESCLOMOL] gave a half-maximal inhibitory concentration (IC50) of 62 nM.

In the next assay the test system is BV-173. The assay is described as follows: cells. The format is functional, cell-based, Homo sapiens. Particulars: Homo sapiens, BV-173.
Description: SANGER: Inhibition of human BV-173 cell growth in a cell viability assay.
Take `CN(NC(=O)CC(=O)NN(C)C(=S)c1ccccc1)C(=S)c1ccccc1` [ELESCLOMOL]: the half-inhibitory concentration (IC50) was found to be 5.39 nM.

Another assay has as its system EKVX. The assay can be described thus: cells. Particulars: Homo sapiens, EKVX. The format is functional, cell-based, Homo sapiens.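 Further: growth inhibition of human EKVX cells, read out with a cell viability assay.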
Description: SANGER: Inhibition of human EKVX cell growth in a cell viability assay.
As to `CN(NC(=O)CC(=O)NN(C)C(=S)c1ccccc1)C(=S)c1ccccc1` [ELESCLOMOL], the half-maximal inhibitory concentration (IC50) came out at 39.5 nM.

The next assay concerns COLO-800. The assay can be described thus: cells. It counts as functional, cell-based, Homo sapiens. The following applies: Homo sapiens, COLO-800.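 Further: growth inhibition of COLO-800 cells, read out with a cell viability assay.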
Description: SANGER: Inhibition of human COLO-800 cell growth in a cell viability assay.
Molecule `CN(NC(=O)CC(=O)NN(C)C(=S)c1ccccc1)C(=S)c1ccccc1` [ELESCLOMOL] gave a 50% inhibitory concentration (IC50) of 29.9 nM.

The test system of another assay is NB10. The assay can be described thus: cells. It counts as functional, cell-based, Homo sapiens. Particulars: Homo sapiens, NB10.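 Further: growth inhibition of NB10 cells, read out by a cell viability assay.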
Description: SANGER: Inhibition of human NB10 cell growth in a cell viability assay.
Molecule `CN(NC(=O)CC(=O)NN(C)C(=S)c1ccccc1)C(=S)c1ccccc1` [ELESCLOMOL] displayed a half-inhibitory concentration (IC50) of 15.2 nM.

The next assay deals with U-87 MG. The assay can be described thus: cells. The following applies: Homo sapiens, U-87 MG. The format is functional, cell-based, Homo sapiens, U-87MG ATCC.
Description: SANGER: Inhibition of human U-87-MG cell growth in a cell viability assay.
For `CN(NC(=O)CC(=O)NN(C)C(=S)c1ccccc1)C(=S)c1ccccc1` [ELESCLOMOL], the half-maximal inhibitory concentration (IC50) was > 200 nM.

The next assay has as its system KINGS-1. The assay can be described thus: cells. The format is functional, cell-based, Homo sapiens. The following applies: Homo sapiens, KINGS-1.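 Further: cell viability assay measuring suppression of KINGS-1 cell growth.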
Description: SANGER: Inhibition of human KINGS-1 cell growth in a cell viability assay.
Turning to `CN(NC(=O)CC(=O)NN(C)C(=S)c1ccccc1)C(=S)c1ccccc1` [ELESCLOMOL], the concentration for half-maximal inhibition (IC50) amounted to 177 nM.

The next assay relates to QIMR-WIL. The assay can be described thus: cells. It counts as functional, cell-based, Homo sapiens. The following applies: Homo sapiens, QIMR-WIL.
Description: SANGER: Inhibition of human QIMR-WIL cell growth in a cell viability assay.
As for `CN(NC(=O)CC(=O)NN(C)C(=S)c1ccccc1)C(=S)c1ccccc1` [ELESCLOMOL], the half-inhibitory concentration (IC50) was determined as 32.9 nM.

A further assay has as its system ETK-1. The assay can be described thus: cells. The format is functional, cell-based, Homo sapiens. The following applies: Homo sapiens, ETK-1.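 Further: growth inhibition of human ETK-1 cells, read out with a cell viability assay.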
Description: SANGER: Inhibition of human ETK-1 cell growth in a cell viability assay.
`CN(NC(=O)CC(=O)NN(C)C(=S)c1ccccc1)C(=S)c1ccccc1` [ELESCLOMOL] showed an IC50 of 35 nM.

In the next assay the test system is MSTO-211H. The assay can be described thus: cells. Particulars: Homo sapiens, MSTO-211H. It counts as functional, cell-based, Homo sapiens.
Description: SANGER: Inhibition of human MSTO-211H cell growth in a cell viability assay.
For the molecule `CN(NC(=O)CC(=O)NN(C)C(=S)c1ccccc1)C(=S)c1ccccc1` [ELESCLOMOL], the concentration for half-maximal inhibition (IC50) is > 200 nM.

The subject of the next assay is COLO-829. The assay is described as follows: cells. Particulars: Homo sapiens, COLO-829. It counts as functional, cell-based, Homo sapiens.
Description: SANGER: Inhibition of human COLO-829 cell growth in a cell viability assay.
For the molecule `CN(NC(=O)CC(=O)NN(C)C(=S)c1ccccc1)C(=S)c1ccccc1` [ELESCLOMOL], the 50% inhibitory concentration (IC50) is 43.1 nM.

Another assay relates to K562. The assay is described as follows: cells. The following applies: Homo sapiens, K562. The format is functional, cell-based, Homo sapiens.
Description: SANGER: Inhibition of human K-562 cell growth in a cell viability assay.
Regarding `CN(NC(=O)CC(=O)NN(C)C(=S)c1ccccc1)C(=S)c1ccccc1` [ELESCLOMOL], the half-inhibitory concentration (IC50) was > 200 nM.

The subject of the next assay is NCI-H69. The assay can be described thus: cells. The following applies: Homo sapiens, NCI-H69. It counts as functional, cell-based, Homo sapiens.
Description: SANGER: Inhibition of human NCI-H69 cell growth in a cell viability assay.
For `CN(NC(=O)CC(=O)NN(C)C(=S)c1ccccc1)C(=S)c1ccccc1` [ELESCLOMOL], the concentration for half-maximal inhibition (IC50) was > 200 nM.

The subject of another assay is A101D. The assay is described as follows: cells. It counts as functional, cell-based, Homo sapiens. Particulars: Homo sapiens, A101D.
Description: SANGER: Inhibition of human A101D cell growth in a cell viability assay.
Molecule `CN(NC(=O)CC(=O)NN(C)C(=S)c1ccccc1)C(=S)c1ccccc1` [ELESCLOMOL] showed an IC50 of 11.4 nM.

In another assay the test system is TE-12. The assay is described as follows: cells. It counts as functional, cell-based, Homo sapiens. Particulars: Homo sapiens, TE-12.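 Further: growth inhibition of TE-12 cells, read out by a cell viability assay.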
Description: SANGER: Inhibition of human TE-12 cell growth in a cell viability assay.
With `CN(NC(=O)CC(=O)NN(C)C(=S)c1ccccc1)C(=S)c1ccccc1` [ELESCLOMOL], the IC50 is > 200 nM.

The next assay concerns COLO-320-HSR. The assay is described as follows: cells. The format is functional, cell-based, Homo sapiens. The following applies: Homo sapiens, COLO-320-HSR.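 Further: growth inhibition of COLO-320-HSR cells, determined with a cell viability assay.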
Description: SANGER: Inhibition of human COLO-320-HSR cell growth in a cell viability assay.
Regarding `CN(NC(=O)CC(=O)NN(C)C(=S)c1ccccc1)C(=S)c1ccccc1` [ELESCLOMOL], the IC50 was > 200 nM.

The test system of a further assay is MFM-223. The assay is described as follows: cells. The format is functional, cell-based, Homo sapiens. Particulars: Homo sapiens, MFM-223.
Description: SANGER: Inhibition of human MFM-223 cell growth in a cell viability assay.
For the molecule `CN(NC(=O)CC(=O)NN(C)C(=S)c1ccccc1)C(=S)c1ccccc1` [ELESCLOMOL], inhibition was half-maximal at 45.2 nM (IC50).
